For data set [1], the system named is PI3K/AKT pathway (AKT, P-AKT, PI3K, PTEN). As to the kind of experiment: Western blot (immunoblotting) of tumor tissue from A549 xenograft mice. As to conditions: for PTEN protein level in tumors: gefitinib 30 mg/kg, 6b both doses, vs control untreated mice. The data set is classed as in vivo, nude mice. The procedure:
Tissue that had been kept at −80 °C was removed and placed on ice for 5 min. A total of 20 mg of tissue was diced and placed in a 1.5 mL microcentrifuge tube kept on ice. The tissue was lysed to extract the proteins using RIPA lysis buffer with a cocktail (IX) of phosphatase and protease inhibitors, followed by sonication for 30 min. After that, the mixture was centrifuged, and the supernatant was collected for protein estimation using the Bradford assay. Thereafter, immunoblotting was performed using SDS-PAGE for the separation and resolving of individual proteins by their molecular weights. The proteins were further transferred to nitrocellulose membranes, and blocking was performed in 3% powdered milk solution. Further, the membrane was washed using TBST buffer and was incubated in primary antibody (CST) for 3 h. After incubation, the membrane was washed in TBST and re-incubated for 1h in secondary antibody. The immune complex was detected using ChemiDoc^TM (BioRad) after washing the membrane with TBST [46].
On the technique in general: A western blot detects proteins with antibodies after separation by electrophoresis.

For data set [2], the system named is Twist, Zeb1, and Hif-1α gene expression. As to the kind of experiment: qPCR analysis of Twist, Zeb1 and Hif-1α in tumor tissue from treated mice. The data set is classed as in vivo, nude mice. The settings on record: vs untreated mice. A general note: Quantitative PCR measures a nucleic acid by following its amplification.
In the next data set the test system is A549 xenograft tumor. As to the kind of experiment: A549-cell-induced lung cancer xenograft model in nude mice. The settings on record: for Average tumor weight: compared with the other groups; for Cytotoxic effect on the tumor (H&E staining): excised tumors; for % tumor growth inhibition: intraperitoneally once a week, 21 days.
The nature of data set [3]: In vitro microsomal stability, human liver microsomes. As to conditions: for microsomal CLint at 1 µM / half-life at 1 µM / remaining at 0.5 h, 1 µM: human, liver microsomes, 0.5 mg/mL microsomes; for microsomal CLint at 1 µM / half-life at 1 µM: pH 7.4, NADPH; for microsomal CLint at 1 µM: read-out: CLint HLM; for half-life at 1 µM: read-out: t½ HLM; for remaining at 0.5 h, 1 µM: NADPH 1 mM, pH 7.4, 37 °C, read-out: % Remaining after 30 min HLM. The data set is classed as in vitro ADME. Background: Liver microsomes are a subcellular fraction often used to study metabolism.
Protocol: (§1) Compounds were incubated at a final concentration of 1 µM with human (HLM) and mouse (MLM) at 0.5 mg/mL and NADPH (1 mM) in 100 mM phosphate buffer (pH 7.4) at 37 °C. The reactions were terminated at 0 and 30 min by the addition of cold acetonitrile containing propranolol (50 ng/mL) as an internal standard.

The nature of another data set: in vitro. The settings on record: mouse, microsomes, pH 7.4.
The next data set deals with EGFR. Also on record: method as in PMID 25342981, PMID 27121209. As to conditions: earlier report of the authors; read-out: IC50 (EGFR inhibition); cited from earlier work.
For data set [4], the system named is H1975 lung cancer cells with mutant EGFR (L858R/T790M). As to conditions: gefitinib-resistant H1975, EGFR L858R/T790M; earlier report of the authors; read-out: IC50 (anti-proliferative, H1975 cells); cited from earlier work.
Data set [5] is described as follows: In vitro microsomal stability, mouse liver microsomes.
Protocol: as §1
Setting [6] is: mouse, liver microsomes, pH 7.4.

SMILES strings stand for the structures.

Protocol for A549 xenograft tumor: The animal experiments were performed as per the guidelines of the Committee for the Purpose of Control and Supervision of Experiments on Animals (CPCSEA) with the approval of the Institutional Animal Ethics Committee (# IAEC/19/14). Four–five-week-old male athymic nude mice were procured from Vivo Bio Tech Ltd., Hyderabad, India. Animals were kept in an individually ventilated caging (IVC) system in a pathogen-free environment with standard conditions of temperature: 22 ± 1 °C, humidity: 50 ± 10%, and a 12 h light/dark cycle maintained in the National Toxicology Center (NTC) in the National Institute of Pharmaceutical Education and Research (NIPER), Mohali. Throughout the study, animals were fed with a standard rodent chow diet and water ad libitum.
Xenograft, the nude mice model, was developed by injecting A549 (1 × 10 ^6 cells, suspended in Matrigel™) subcutaneously into the right flank of each mouse. Tumor-bearing mice were randomly divided into four groups with seven animals per group after attaining an anticipated tumor volume of >80 mm^3. […] Treatment was given intraperitoneally once a week for a period of 21 days. Tumor volume and body weight were measured weekly during the study. Vernier caliper was used to measure the size of A549-cell-induced tumors weekly, starting from two weeks after inoculation.
Tumors were surgically removed from animals, sliced, and fixed in 10% v/v formal saline. For the histological study, the sliced tumors were processed and embedded in paraffin; sections of 5 µm were mounted on poly-L-lysine-coated glass slides. Sections were then stained with hematoxylin & eosin (H&E) to observe the structural alterations as described.

For `COc1cc2ncnc(Nc3ccc(F)c(Cl)c3)c2cc1OCCCN1CCOCC1` [gefitinib, reference compound], in data set [1], the “PTEN protein level in tumors” value is listed as “increased”. Besides, in data set [2], the “Expression of the Hif-1α gene in tumors” value was “decreased”. Also, in the data set with A549 xenograft tumor (30 mg/kg, i.p.), the “Kaplan–Meier survival” value was “improved the survival of the mice” and the Average tumor weight entry was “lower”. For the same compound, the “Cytotoxic effect on the tumor (H&E staining)” value with A549 xenograft tumor is on record as “marked cytotoxic damage”. Moreover, the “Effect on tumor volume / size” value in the data set with A549 xenograft tumor (mouse, in vivo) is given as “suppression of tumor volume to some extent”.
One may read the amount remaining as what is left of the initial amount, in per cent. In the case of `NC(=O)N1c2ccccc2C=Cc2ccccc21` [Carbamazepine, reference compound], in data set [3], the microsomal CLint at 1 µM is 3 µL/min/mg; the half-life at 1 µM was found to be 7.97 h; the share remaining at 0.5 h, 1 µM worked out at 95.7%. In the data set “in vitro”, this compound registered a half-life at 1 µM of 2.17 h; a microsomal CLint at 1 µM of 11 µL/min/mg; an amount remaining at 0.5 h, 1 µM of 85.2%.
As a reminder, the IC50 is the concentration at which inhibition is half-maximal. `COc1cc(C=Nc2c(C#N)nc3c(-c4cc(OC)c(OC)c(OC)c4)nc4ccccc4n23)cc(OC)c1OC` [6b, 1-((3,4,5-Trimethoxybenzylidene)amino)-4-(3,4,5-trimethoxyphenyl)imidazo[1,2-a]quinoxaline-2-carbonitrile]: the “AKT, P-AKT and PI3K protein level in tumor masses” value in data set [1] (LD (10 mg/kg) and HD (30 mg/kg), vs untreated mice) is “decreased”. Also, in data set [1], the “PTEN protein level in tumors” value is “increased”. In addition, in data set [2], the “Expression of EMT-regulating genes Twist and Zeb1 in tumors” value was “decreased”; the “Expression of the Hif-1α gene in tumors” value is on record as “decreased”. Besides, in data set [3], the “Stability in human liver microsomes (in words)” value is “good stability”; the microsomal CLint at 1 µM came to 80 µL/min/mg; the half-life at 1 µM stood at 0.287 h; the share remaining at 0.5 h, 1 µM amounted to 29.9%. The IC50 in the data set with EGFR is 0.211 µM. Moreover, the half-inhibitory concentration (IC50) in data set [4] is 3.65 µM. For the same compound, the “Stability in mouse liver microsomes (in words)” value in data set [5] is “good stability”. In data set [5] (setting [6]), this compound registered a half-life at 1 µM of 0.602 h; a microsomal CLint at 1 µM of 38 µL/min/mg; a share remaining at 0.5 h, 1 µM of 56.2%. Moreover, in the data set on A549 xenograft tumor (10 mg/kg (LD)), the “% tumor growth inhibition” value was determined as 16%. Besides, in the data set on A549 xenograft tumor (30 mg/kg, i.p.), the “Kaplan–Meier survival” value is “improved the survival of the mice” and the Average tumor weight result is reported as “lower”. In addition, the “Effect on tumor volume / size” value in the data set with A549 xenograft tumor (30 mg/kg, i.p., vs tumor control) is reported as “significantly decreased the size of the tumors”. Moreover, the “% tumor growth inhibition” value in the data set on A549 xenograft tumor (30 mg/kg) is listed as 33%. Moreover, the “Cytotoxic effect on the tumor (H&E staining)” value in the data set with A549 xenograft tumor was “marked cytotoxic damage”.
